According to publication PMC5917077, “CD22-Binding Synthetic Sialosides Regulate B Lymphocyte Proliferation Through CD22 Ligand-Dependent and Independent Pathways, and Enhance Antibody Production in Mice” (Frontiers in Immunology, 2018):
pIC50: −log10 of the molar value.

Experiments:
CD22 (Siglec-2) [1] = molecular target: T1, CD22 (Siglec-2) (Homo sapiens, UniProt P20273); assay: competition ELISA, human CD22-Fc binding to immobilized α1-acid glycoprotein
T1 construct: amino-terminal domains (domains 1–3) fused to Fc region of human IgG1 (CD22-Fc)
T1 sequence (P20273 20-326 limits assumed): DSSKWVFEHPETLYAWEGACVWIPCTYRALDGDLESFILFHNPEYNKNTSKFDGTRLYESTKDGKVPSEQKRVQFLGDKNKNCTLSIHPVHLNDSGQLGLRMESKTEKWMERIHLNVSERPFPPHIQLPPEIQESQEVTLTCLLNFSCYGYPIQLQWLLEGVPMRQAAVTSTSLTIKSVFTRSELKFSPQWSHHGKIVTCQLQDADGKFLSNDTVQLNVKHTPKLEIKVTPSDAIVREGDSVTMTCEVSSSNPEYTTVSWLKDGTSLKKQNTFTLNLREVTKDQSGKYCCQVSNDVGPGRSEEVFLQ

CD22 (Siglec-2) [2] = molecular target: T2, CD22 (Siglec-2) (Mus musculus, UniProt P35329); assay: competition ELISA, mouse CD22-Fc binding to immobilized biotinylated synthetic CD22 ligand
T2 construct: amino-terminal domains (domains 1–3) fused to Fc region of human IgG1 (CD22-Fc)
T2 sequence (P35329 22-347 limits assumed): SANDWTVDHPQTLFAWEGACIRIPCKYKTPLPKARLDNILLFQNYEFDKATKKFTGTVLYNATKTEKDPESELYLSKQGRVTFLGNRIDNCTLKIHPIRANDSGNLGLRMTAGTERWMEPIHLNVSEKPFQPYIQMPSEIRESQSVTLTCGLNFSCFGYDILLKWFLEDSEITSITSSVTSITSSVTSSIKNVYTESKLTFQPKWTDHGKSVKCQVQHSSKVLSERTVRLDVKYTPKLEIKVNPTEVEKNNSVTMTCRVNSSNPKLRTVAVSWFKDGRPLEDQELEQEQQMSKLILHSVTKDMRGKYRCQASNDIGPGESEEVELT

Compound	pIC50 (CD22 (Siglec-2) [1])	pIC50 (CD22 (Siglec-2) [2])
O=C(Cc1ccc(-c2ccc(O)cc2)cc1)NC[C@@H](O)[C@@H](O)[C@@H]1O[C@@](OCc2ccccc2)(C(=O)O)C[C@H](O)[C@H]1NC(=O)CO [GSC718]	~7.00	~7.00
O=C(Cc1ccc(-c2ccc(O)cc2)cc1)NC[C@@H](O)[C@@H](O)[C@@H]1OC(OCc2ccc(F)cc2)(C(=O)O)C[C@H](O)[C@H]1NC(=O)CO (stereo partly shown) [GSC839]	~7.00	~7.00
